Source: ChEMBL document CHEMBL4138175, “Newly designed organotin(IV) carboxylates with peptide linkage: Synthesis, structural elucidation, physicochemical characterizations and pharmacological investigations” (Eur J Med Chem, 2018)
Active and inactive are the calls of the source. The rule behind the calls is not given here.

Experiments:
NCI-H157 [1] = experiment: Cytotoxicity against human NCI-H157 cells at 0.1 uM after 48 hrs by sulforhodamine B assay; assay type: functional
Staphylococcus aureus [2] = experiment: Antibacterial activity against Staphylococcus aureus assessed as zone of inhibition after 24 to 48 hrs by well diffusion method; assay type: functional
NCI-H157 [3] = experiment: Cytotoxicity against human NCI-H157 cells after 48 hrs by sulforhodamine B assay; assay type: functional, cell-based
[4] = test system: Staphylococcus epidermidis; experiment: Antibacterial activity against Staphylococcus epidermidis assessed as zone of inhibition by measuring activity index after 24 to 48 hrs by well diffusion method relative to amoxicillin; assay type: functional, organism-based
NCI-H157 [5] = experiment: Cytotoxicity against human NCI-H157 cells at 1 uM after 48 hrs by sulforhodamine B assay; assay type: functional
Staphylococcus aureus [6] = experiment: Antibacterial activity against Staphylococcus aureus assessed as zone of inhibition by measuring activity index after 24 to 48 hrs by well diffusion method relative to ampicillin; assay type: functional, organism-based
NCI-H157 [7] = experiment: Cytotoxicity against human NCI-H157 cells at 10 uM after 48 hrs by sulforhodamine B assay; assay type: functional
Leishmania major [8] = experiment: Antileishmanial activity against Leishmania major promastigotes at 0.1 uM after 72 hrs by MTT assay relative to control; assay type: functional
Leishmania major [9] = experiment: Antileishmanial activity against Leishmania major promastigotes at 100 uM after 72 hrs by MTT assay relative to control; assay type: functional
Leishmania major [10] = experiment: Antileishmanial activity against Leishmania major promastigotes at 1 uM after 72 hrs by MTT assay relative to control; assay type: functional
Klebsiella pneumoniae [11] = experiment: Antibacterial activity against Klebsiella pneumoniae assessed as zone of inhibition after 24 to 48 hrs by well diffusion method; assay type: functional
Klebsiella pneumoniae [12] = experiment: Antibacterial activity against Klebsiella pneumoniae assessed as zone of inhibition by measuring activity index after 24 to 48 hrs by well diffusion method relative to tetracycline; assay type: functional, organism-based
[13] = test system: Staphylococcus epidermidis; experiment: Antibacterial activity against Staphylococcus epidermidis assessed as zone of inhibition by measuring activity index after 24 to 48 hrs by well diffusion method relative to tetracycline; assay type: functional, organism-based
NCI-H157 [14] = experiment: Cytotoxicity against human NCI-H157 cells at 100 uM after 48 hrs by sulforhodamine B assay; assay type: functional
Staphylococcus aureus [15] = experiment: Antibacterial activity against Staphylococcus aureus assessed as zone of inhibition by measuring activity index after 24 to 48 hrs by well diffusion method relative to tetracycline; assay type: functional, organism-based
Pseudomonas aeruginosa [16] = experiment: Antibacterial activity against Pseudomonas aeruginosa assessed as zone of inhibition by measuring activity index after 24 to 48 hrs by well diffusion method relative to penicillin G; assay type: functional, organism-based
Escherichia coli [17] = experiment: Antibacterial activity against Escherichia coli assessed as zone of inhibition after 24 to 48 hrs by well diffusion method; assay type: functional
Pseudomonas aeruginosa [18] = experiment: Antibacterial activity against Pseudomonas aeruginosa assessed as zone of inhibition by measuring activity index after 24 to 48 hrs by well diffusion method relative to amoxicillin; assay type: functional, organism-based
Leishmania major [19] = experiment: Antileishmanial activity against Leishmania major promastigotes at 10 uM after 72 hrs by MTT assay relative to control; assay type: functional
Serratia marcescens [20] = experiment: Antibacterial activity against Serratia marcescens assessed as zone of inhibition after 24 to 48 hrs by well diffusion method; assay type: functional
Streptococcus pyogenes = experiment: Antibacterial activity against Streptococcus pyogenes assessed as zone of inhibition after 24 to 48 hrs by well diffusion method; assay type: functional
Staphylococcus aureus [21] = experiment: Antibacterial activity against Staphylococcus aureus assessed as zone of inhibition by measuring activity index after 24 to 48 hrs by well diffusion method relative to amoxicillin; assay type: functional, organism-based
Pseudomonas aeruginosa [22] = experiment: Antibacterial activity against Pseudomonas aeruginosa assessed as zone of inhibition after 24 to 48 hrs by well diffusion method; assay type: functional
Staphylococcus aureus [23] = experiment: Antibacterial activity against Staphylococcus aureus assessed as zone of inhibition by measuring activity index after 24 to 48 hrs by well diffusion method relative to penicillin G; assay type: functional, organism-based
[24] = test system: Staphylococcus epidermidis; experiment: Antibacterial activity against Staphylococcus epidermidis assessed as zone of inhibition after 24 to 48 hrs by well diffusion method; assay type: functional
Serratia marcescens [25] = experiment: Antibacterial activity against Serratia marcescens assessed as zone of inhibition by measuring activity index after 24 to 48 hrs by well diffusion method relative to tetracycline; assay type: functional, organism-based
Klebsiella pneumoniae [26] = experiment: Antibacterial activity against Klebsiella pneumoniae assessed as zone of inhibition by measuring activity index after 24 to 48 hrs by well diffusion method relative to amoxicillin; assay type: functional, organism-based
Klebsiella pneumoniae [27] = experiment: Antibacterial activity against Klebsiella pneumoniae assessed as zone of inhibition by measuring activity index after 24 to 48 hrs by well diffusion method relative to ampicillin; assay type: functional, organism-based
Pseudomonas aeruginosa [28] = experiment: Antibacterial activity against Pseudomonas aeruginosa assessed as zone of inhibition by measuring activity index after 24 to 48 hrs by well diffusion method relative to tetracycline; assay type: functional, organism-based
Serratia marcescens [29] = experiment: Antibacterial activity against Serratia marcescens assessed as zone of inhibition by measuring activity index after 24 to 48 hrs by well diffusion method relative to penicillin G; assay type: functional
Serratia marcescens [30] = experiment: Antibacterial activity against Serratia marcescens assessed as zone of inhibition by measuring activity index after 24 to 48 hrs by well diffusion method relative to ampicillin; assay type: functional
DNA [31] = experiment: Binding affinity to single-stranded DNA (unknown origin) assessed as red shift up to 72 uM after 10 mins by UV-visible spectrometric method; assay type: nucleic-acid assay
Escherichia coli [32] = experiment: Antibacterial activity against Escherichia coli assessed as zone of inhibition by measuring activity index after 24 to 48 hrs by well diffusion method relative to tetracycline; assay type: functional
DNA [33] = experiment: Binding affinity to single-stranded DNA (unknown origin) after 10 mins by UV-visible spectrometric method; assay type: nucleic-acid assay
DNA [34] = experiment: Binding affinity to single-stranded DNA (unknown origin) assessed as DNA intercalation by measuring increase in relative viscosity of DNA-compound complex by viscometry; assay type: nucleic-acid assay
Serratia marcescens [35] = experiment: Antibacterial activity against Serratia marcescens assessed as zone of inhibition by measuring activity index after 24 to 48 hrs by well diffusion method relative to amoxicillin; assay type: functional

## Tricyclohexylstannyl 2-(4-methoxy-2-nitrophenylcarbamoyl)benzoate
NCI-H157 [1]
  Activity: 43.6%
Staphylococcus aureus [2]
  inhibition zone (IZ): inactive
NCI-H157 [3]
  Activity: Dose-dependent effect
[4]
  Activity index: 6.17
NCI-H157 [5]
  Activity: 50.6%
Staphylococcus aureus [6]
  Activity_index: inactive
NCI-H157 [7]
  Activity: 54%
Leishmania major [8]
  Activity: 55.2%
Leishmania major [9]
  Activity: 67.8%
Leishmania major [10]
  Activity: 58.8%
Klebsiella pneumoniae [11]
  inhibition zone (IZ): 18.5 mm
Klebsiella pneumoniae [12]
  Activity index: 1.32
[13]
  Activity index: 1.23
NCI-H157 [14]
  Activity: 59.3%
Staphylococcus aureus [15]
  Activity_index: inactive
Pseudomonas aeruginosa [16]
  Activity index: 3.11
Escherichia coli [17]
  inhibition zone (IZ): inactive
Pseudomonas aeruginosa [18]
  Activity index: 3.11
Leishmania major [19]
  Activity: 63.5%
Serratia marcescens [20]
  inhibition zone (IZ): inactive
Streptococcus pyogenes
  inhibition zone (IZ): 16.7 mm
Staphylococcus aureus [21]
  Activity_index: inactive
Pseudomonas aeruginosa [22]
  inhibition zone (IZ): 18.7 mm
Staphylococcus aureus [23]
  Activity_index: inactive
[24]
  inhibition zone (IZ): 12.3 mm
Serratia marcescens [25]
  Activity_index: inactive
Klebsiella pneumoniae [26]
  Activity index: 3.09
Klebsiella pneumoniae [27]
  Activity index: 3.09
Pseudomonas aeruginosa [28]
  Activity index: 3.11

## Trimethylstannyl 2-(4-methoxy-2-nitrophenylcarbamoyl)benzoate
NCI-H157 [1]
  Activity: 54.4%
Staphylococcus aureus [2]
  inhibition zone (IZ): 4.66 mm
Serratia marcescens [29]
  Activity index: 1.67
NCI-H157 [3]
  Activity: Dose-dependent effect
[4]
  Activity index: 5.17
NCI-H157 [5]
  Activity: 58.2%
NCI-H157 [7]
  Activity: 62.3%
Serratia marcescens [30]
  Activity index: 1.67
Leishmania major [8]
  Activity: 58.8%
DNA [31]
  Activity: < 3 nm
Leishmania major [9]
  Activity: 67.8%
Leishmania major [10]
  Activity: 62.9%
Klebsiella pneumoniae [11]
  inhibition zone (IZ): 20.2 mm
Escherichia coli [32]
  Activity index: 8.33
Klebsiella pneumoniae [12]
  Activity index: 1.44
DNA [33]
  K: 4.2 ×10³ /M
[13]
  Activity index: 1.03
NCI-H157 [14]
  Activity: 66.4%
DNA [34]
  Activity: Active
Serratia marcescens [35]
  Activity index: 2.22
Pseudomonas aeruginosa [16]
  Activity index: 2.61
Escherichia coli [17]
  inhibition zone (IZ): 16.7 mm
Pseudomonas aeruginosa [18]
  Activity index: 2.61
Leishmania major [19]
  Activity: 66.5%
Serratia marcescens [20]
  inhibition zone (IZ): 13.3 mm
Streptococcus pyogenes
  inhibition zone (IZ): 7.33 mm
Pseudomonas aeruginosa [22]
  inhibition zone (IZ): 15.7 mm
[24]
  inhibition zone (IZ): 10.3 mm
Klebsiella pneumoniae [26]
  Activity index: 3.44
Klebsiella pneumoniae [27]
  Activity index: 3.44
Pseudomonas aeruginosa [28]
  Activity index: 2.61
